Laboratory results from publication PMC12337661, “PIEZO1 mechanical insensitivity in generalized lymphatic dysplasia with the potential for pharmacological rescue” (iScience, 2025).

Columns and labels:
Assay type in all cases: cell-based
[1] = target: T1, E829V hPIEZO1 (Homo sapiens, UniProt Q92508, E829V); experiment: Intracellular Ca2+ measurement (fura-2), T-REx-293 cells transiently transfected; details: 1 μM Y1, versus WT
T1 construct: expressed in transfected cells; host or cells: T-REx-293 (modified HEK293), transient
T1 sequence (Q92508 whole entry E829V): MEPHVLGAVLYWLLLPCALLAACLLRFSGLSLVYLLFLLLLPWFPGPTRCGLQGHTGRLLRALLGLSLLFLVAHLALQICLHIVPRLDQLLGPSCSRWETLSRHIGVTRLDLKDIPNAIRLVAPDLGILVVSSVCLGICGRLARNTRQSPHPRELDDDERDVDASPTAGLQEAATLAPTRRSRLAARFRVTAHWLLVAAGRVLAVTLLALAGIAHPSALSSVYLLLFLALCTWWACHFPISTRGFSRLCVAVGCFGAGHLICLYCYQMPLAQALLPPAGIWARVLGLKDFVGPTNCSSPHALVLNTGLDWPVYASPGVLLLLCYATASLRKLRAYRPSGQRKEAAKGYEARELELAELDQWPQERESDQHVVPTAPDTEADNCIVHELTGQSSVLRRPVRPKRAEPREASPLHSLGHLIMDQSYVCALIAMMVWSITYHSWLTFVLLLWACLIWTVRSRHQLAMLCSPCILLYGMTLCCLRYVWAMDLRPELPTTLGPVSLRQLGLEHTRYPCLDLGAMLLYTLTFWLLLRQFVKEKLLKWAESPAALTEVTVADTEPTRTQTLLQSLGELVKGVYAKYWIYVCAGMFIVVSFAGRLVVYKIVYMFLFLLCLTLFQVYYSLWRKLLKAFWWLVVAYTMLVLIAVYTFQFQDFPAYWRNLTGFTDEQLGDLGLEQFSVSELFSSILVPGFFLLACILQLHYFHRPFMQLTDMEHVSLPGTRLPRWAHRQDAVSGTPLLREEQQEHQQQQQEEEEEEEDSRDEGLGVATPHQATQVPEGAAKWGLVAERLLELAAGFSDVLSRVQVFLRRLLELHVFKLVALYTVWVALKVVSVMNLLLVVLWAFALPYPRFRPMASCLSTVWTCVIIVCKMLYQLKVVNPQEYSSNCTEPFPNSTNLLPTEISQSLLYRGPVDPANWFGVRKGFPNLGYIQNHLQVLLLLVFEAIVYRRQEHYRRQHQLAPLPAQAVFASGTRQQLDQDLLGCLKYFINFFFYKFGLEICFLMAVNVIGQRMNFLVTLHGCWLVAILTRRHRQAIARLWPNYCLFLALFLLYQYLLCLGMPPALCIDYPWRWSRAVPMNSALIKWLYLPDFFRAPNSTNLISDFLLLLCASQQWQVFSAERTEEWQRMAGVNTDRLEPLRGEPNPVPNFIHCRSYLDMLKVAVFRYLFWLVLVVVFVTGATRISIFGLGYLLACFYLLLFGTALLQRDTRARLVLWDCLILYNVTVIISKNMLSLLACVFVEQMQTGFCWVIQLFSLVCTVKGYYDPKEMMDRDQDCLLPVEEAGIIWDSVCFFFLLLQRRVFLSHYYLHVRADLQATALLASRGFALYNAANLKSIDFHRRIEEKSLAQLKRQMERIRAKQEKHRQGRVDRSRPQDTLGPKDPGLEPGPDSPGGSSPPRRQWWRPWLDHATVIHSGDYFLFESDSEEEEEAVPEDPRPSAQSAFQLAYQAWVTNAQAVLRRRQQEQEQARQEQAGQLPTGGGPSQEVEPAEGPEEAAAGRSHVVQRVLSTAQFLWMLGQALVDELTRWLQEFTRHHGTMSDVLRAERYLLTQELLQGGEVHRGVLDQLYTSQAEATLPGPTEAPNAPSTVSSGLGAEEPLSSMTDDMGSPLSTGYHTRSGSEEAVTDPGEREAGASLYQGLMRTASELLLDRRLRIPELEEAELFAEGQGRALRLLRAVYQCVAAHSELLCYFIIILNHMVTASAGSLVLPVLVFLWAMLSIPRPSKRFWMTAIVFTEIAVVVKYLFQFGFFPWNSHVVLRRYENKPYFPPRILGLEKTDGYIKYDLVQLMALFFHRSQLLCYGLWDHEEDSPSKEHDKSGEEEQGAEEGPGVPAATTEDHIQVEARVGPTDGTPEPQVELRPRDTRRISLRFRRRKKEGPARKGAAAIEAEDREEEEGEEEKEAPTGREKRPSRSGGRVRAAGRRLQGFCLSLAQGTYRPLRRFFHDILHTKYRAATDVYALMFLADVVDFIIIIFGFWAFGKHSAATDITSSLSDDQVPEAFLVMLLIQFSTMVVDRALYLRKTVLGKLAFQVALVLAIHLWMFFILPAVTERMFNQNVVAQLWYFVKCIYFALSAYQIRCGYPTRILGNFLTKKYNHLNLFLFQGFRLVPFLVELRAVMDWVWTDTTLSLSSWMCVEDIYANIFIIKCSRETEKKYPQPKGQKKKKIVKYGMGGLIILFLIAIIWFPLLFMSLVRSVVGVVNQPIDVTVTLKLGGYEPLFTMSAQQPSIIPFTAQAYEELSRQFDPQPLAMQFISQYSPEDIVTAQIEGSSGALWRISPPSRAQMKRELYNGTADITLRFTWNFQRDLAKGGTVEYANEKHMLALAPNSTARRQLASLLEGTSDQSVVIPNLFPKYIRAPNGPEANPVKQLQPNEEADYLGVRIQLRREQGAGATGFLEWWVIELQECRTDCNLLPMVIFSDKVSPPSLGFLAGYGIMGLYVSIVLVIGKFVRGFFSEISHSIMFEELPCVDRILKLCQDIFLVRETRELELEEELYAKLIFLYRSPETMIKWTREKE
Description: (§1) HEK 293 cell line was transiently transfected at 90% confluence using Lipofectamine 2000 (Invitrogen) in OptiMEM (Gibco). Briefly: 500 ng endotoxin-free DNA per 100μL OptiMEM was prepared alongside 3μL Lipofectamine 2000 per 100μL OptiMEM (Gibco). Both were incubated for 5 min and then mixed, and then incubated at room temperature (21°C–24°C) for 20–30 min. Finally, the transfection mix was gently added dropwise to the cells and the cells were placed in a humidified incubator at 37°C supplied with 5% CO2 for 5 h. Medium was replaced afterward, and cells were used for experimentation 48 h after transfection.
(§2) For intracellular Ca^2+ assays, cells were plated at 80–90% confluence in 96-well plates 24 h prior to recordings (6–8 × 10^4 cells per well). […] Cells were washed with SBS and incubated at room temperature for 20 min prior to recordings. Equal volumes of 2x concentrated compounds were injected to test for acute channel activation. Pre-incubation with compounds occurred during the 20 min prior to recordings. To expose cell membranes to hypo-osmolality, an equal volume of hypotonic SBS (containing only 35 mM NaCl) was injected onto the cells. Measurements were made on a fluorescence plate reader (Flexstation III, Molecular Devices) at room temperature (21 ± 2°C). Fura-2 was excited at 340 nm and 380 nm and emitted light collected at 510 nm, with measurements shown as the change in fluorescence (F) ratio (ΔF340/380).
(§3) KC41 (Dooku1) was prepared as described.[28] All purchased chemicals and solvents were used without further purification unless otherwise stated. All compounds were at least 95% pure by 1H NMR. 1H Nuclear Magnetic Resonance spectra were recorded at 500 MHz using a Bruker DRX 500 instrument or at 400 MHz using a Bruker DPX 400. 1H spectra are referenced based on the residual proton in the solvent (e.g., the CHCl3, 0.01% in 99.99% CDCl3). Coupling constants (J) are reported to the nearest 0.1 Hz. 13C NMR spectra were recorded at 125 MHz on 500 MHz spectrometers or at 100 MHz on 400 MHz spectrometers. LC-MS was performed on a Bruker Daltronics running a gradient of increasing acetonitrile (5–95%) in H2O both containing 0.1% formic acid at 1 mL.min^−1, on a short path C18 reverse phase column, detecting compounds with both a diode array detector and a Bruker mass spectrum analyser. HRMS was performed on a Bruker Daltonics micrOTOF using positive electrospray ionisation (ES+). Automated column chromatograph was carried out using a Biotage Isolera Four, using either Sfär Silica D or KP-Silica cartridges. HPLC was performed on an Agilent 1290 Infinity Series equipped with a UV detector and Hyperprep C18 reverse phase column. Key to NMR abbreviations: s (singlet), br s (broad singlet) d (doublet), dd (doublet of doublets), ddd (doublet of doublets of doublets), t (triplet), dt (doublet of triples), q (quartet), m (multiplet), ap. t (apparent triplet). For experiments, Yoda1 and its analogues were prepared as 10 mM stock solutions in 100% dimethyl sulfoxide (DMSO) before serial dilution in DMSO and final dilution in aqueous solution. Cells were exposed to 0.1% DMSO for all concentrations of the compounds from 0 to 10 μM.

[2] = target: T2, G1978D hPIEZO1 (Homo sapiens, UniProt Q92508, G1978D); experiment: as above; details: 1 μM Y1, versus WT
T2 construct: expressed in transfected cells; host or cells: T-REx-293 (modified HEK293), transient
T2 sequence (Q92508 whole entry G1978D): as the sequence (Q92508 whole entry E829V) above, with V829E, G1978D counted along it
Description: as §1, §2, §3

[3] = target: T3, I2270T hPIEZO1 (Homo sapiens, UniProt Q92508, I2270T); experiment: as above
T3 construct: expressed in transfected cells; host or cells: T-REx-293 (modified HEK293), transient
T3 sequence (Q92508 whole entry I2270T): as the sequence (Q92508 whole entry E829V) above, with V829E, I2270T counted along it
Description: as §1, §2, §3

[4] = target: T4, WT hPIEZO1 (Homo sapiens, UniProt Q92508); experiment: as above; details: 1 μM
T4 construct: expressed in transfected cells; host or cells: T-REx-293 (modified HEK293), transient
T4 sequence (Q92508 whole entry): as the sequence (Q92508 whole entry E829V) above, with V829E counted along it
Description: as §1, §2, §3

[5] = system: T-REx-293 cells, empty vector (vector control); experiment: Intracellular Ca2+ measurement (fura-2), T-REx-293 cells transiently transfected with empty vector; details: 1 μM
Description: as §1, §2, §3

## Clc1cccc(Cl)c1CSc1nnc(-c2cnccn2)s1 [Yoda1]
[1]
  Effect on hPIEZO1 channel function: reduced 1 μM Y1 effect
[2]
  Effect on hPIEZO1 channel function: reduced 1 μM Y1 effect
[3]; 1 μM Y1, versus WT
  Effect on hPIEZO1 channel function: loss of MA: LOF; reduced 1 μM Y1 effect
[3]; 1 μM, n = 4
  Ca2+ signal 30-60 s after application, normalized to WT, vector control subtracted, Mean: 0.1013
[3]; 1 μM, time 0 s
  fluorescence (ΔFratio): 6.26E-04
[3]; 1 μM, time 5 s
  fluorescence (ΔFratio): -0.00991
[3]; 1 μM, time 10 s
  fluorescence (ΔFratio): -0.00857
[3]; 1 μM, time 15 s
  fluorescence (ΔFratio): 0.00155
[3]; 1 μM, time 20 s
  fluorescence (ΔFratio): 0.00344
[3]; 1 μM, time 25 s
  fluorescence (ΔFratio): 0.01286
[3]; 1 μM, time 30 s
  fluorescence (ΔFratio): -0.01023
[3]; 1 μM, time 35 s
  fluorescence (ΔFratio): -0.00138
[3]; 1 μM, time 40 s
  fluorescence (ΔFratio): 0.07241
[3]; 1 μM, time 45 s
  fluorescence (ΔFratio): 0.05056
[3]; 1 μM, time 50 s
  fluorescence (ΔFratio): 0.06632
[3]; 1 μM, time 55 s
  fluorescence (ΔFratio): 0.05818
[3]; 1 μM, time 60 s
  fluorescence (ΔFratio): 0.06863
[3]; 1 μM, time 65 s
  fluorescence (ΔFratio): 0.05602
[3]; 1 μM, time 70 s
  fluorescence (ΔFratio): 0.06799
[3]; 1 μM, time 75 s
  fluorescence (ΔFratio): 0.05186
[3]; 1 μM, time 80 s
  fluorescence (ΔFratio): 0.04949
[3]; 1 μM, time 85 s
  fluorescence (ΔFratio): 0.05597
[3]; 1 μM, time 90 s
  fluorescence (ΔFratio): 0.06467
[3]; 1 μM, time 95 s
  fluorescence (ΔFratio): 0.02814
[3]; 1 μM, time 100 s
  fluorescence (ΔFratio): 0.04731
[3]; 1 μM, time 105 s
  fluorescence (ΔFratio): 0.04051
[3]; 1 μM, time 110 s
  fluorescence (ΔFratio): 0.04381
[3]; 1 μM, time 115 s
  fluorescence (ΔFratio): 0.05647
[3]; 1 μM, time 120 s
  fluorescence (ΔFratio): 0.06513
[3]; 1 μM, time 125 s
  fluorescence (ΔFratio): 0.04171
[4]; time 0 s
  fluorescence (ΔFratio): -0.01302
[4]; time 5 s
  fluorescence (ΔFratio): -0.00371
[4]; time 10 s
  fluorescence (ΔFratio): 0.00261
[4]; time 15 s
  fluorescence (ΔFratio): 0.01821
[4]; time 20 s
  fluorescence (ΔFratio): -9.97E-05
[4]; time 25 s
  fluorescence (ΔFratio): -0.004
[4]; time 30 s
  fluorescence (ΔFratio): -0.05053
[4]; time 35 s
  fluorescence (ΔFratio): 0.02247
[4]; time 40 s
  fluorescence (ΔFratio): 0.1718
[4]; time 45 s
  fluorescence (ΔFratio): 0.1972
[4]; time 50 s
  fluorescence (ΔFratio): 0.2136
[4]; time 55 s
  fluorescence (ΔFratio): 0.2004
[4]; time 60 s
  fluorescence (ΔFratio): 0.1986
[4]; time 65 s
  fluorescence (ΔFratio): 0.1996
[4]; time 70 s
  fluorescence (ΔFratio): 0.1871
[4]; time 75 s
  fluorescence (ΔFratio): 0.1803
[4]; time 80 s
  fluorescence (ΔFratio): 0.1839
[4]; time 85 s
  fluorescence (ΔFratio): 0.1791
[4]; time 90 s
  fluorescence (ΔFratio): 0.1817
[4]; time 95 s
  fluorescence (ΔFratio): 0.1659
[4]; time 100 s
  fluorescence (ΔFratio): 0.1565
[4]; time 105 s
  fluorescence (ΔFratio): 0.1608
[4]; time 110 s
  fluorescence (ΔFratio): 0.1552
[4]; time 115 s
  fluorescence (ΔFratio): 0.1355
[4]; time 120 s
  fluorescence (ΔFratio): 0.1385
[4]; time 125 s
  fluorescence (ΔFratio): 0.172
[5]; time 0 s
  fluorescence (ΔFratio): 0.00237
[5]; time 5 s
  fluorescence (ΔFratio): -0.00988
[5]; time 10 s
  fluorescence (ΔFratio): 0.01607
[5]; time 15 s
  fluorescence (ΔFratio): 0.00395
[5]; time 20 s
  fluorescence (ΔFratio): -3.91E-04
[5]; time 25 s
  fluorescence (ΔFratio): -0.01211
[5]; time 30 s
  fluorescence (ΔFratio): -0.08353
[5]; time 35 s
  fluorescence (ΔFratio): 0.00717
[5]; time 40 s
  fluorescence (ΔFratio): 0.03324
[5]; time 45 s
  fluorescence (ΔFratio): 0.05289
[5]; time 50 s
  fluorescence (ΔFratio): 0.03768
[5]; time 55 s
  fluorescence (ΔFratio): 0.03322
[5]; time 60 s
  fluorescence (ΔFratio): 0.03103
[5]; time 65 s
  fluorescence (ΔFratio): 0.02272
[5]; time 70 s
  fluorescence (ΔFratio): 0.00255
[5]; time 75 s
  fluorescence (ΔFratio): 0.00791
[5]; time 80 s
  fluorescence (ΔFratio): -0.00287
[5]; time 85 s
  fluorescence (ΔFratio): 0.01077
[5]; time 90 s
  fluorescence (ΔFratio): -0.01792
[5]; time 95 s
  fluorescence (ΔFratio): -0.01119
[5]; time 100 s
  fluorescence (ΔFratio): 0.01819
[5]; time 105 s
  fluorescence (ΔFratio): 8.16E-04
[5]; time 110 s
  fluorescence (ΔFratio): 0.00558
[5]; time 115 s
  fluorescence (ΔFratio): 0.00369
[5]; time 120 s
  fluorescence (ΔFratio): 7.66E-04
[5]; time 125 s
  fluorescence (ΔFratio): 0.00667
